Data taken from article PMC7698453, “4-Benzyloxylonchocarpin and Muracatanes A-C from Ranunculus muricatus L. and Their Biological Effects” (Biomolecules, 2020).
Counter-ions that a name gives are not always drawn. Like-named read-outs stand apart in the source and are kept apart here.

What was measured:
[1] = Sulforhodamine B cytotoxicity assay, MCF7; format: cell-based; settings: human, MCF7 breast cancer cells; SRB assay, tested 1-30 µM
Experimental: (§1) The cytotoxicity of the natural products was screened by using the sulforhodamine-B (Kiton Red S, ABCR, Karlsruhe, Germany) in micro culture colorimetric assay using 96-well plates with the seeding of the cells on day 0 applying appropriate cell densities to prevent confluence of the cells during the period of the experiment. On day 1, the cells were treated with six different concentrations (1, 3, 7, 12, 20 and 30 µM); thereby, the final concentration of DMSO was always ≤ 0.5%, generally regarded as non-toxic to the cells. On day 4, the supernatant medium was discarded; the cells were fixed with 10 % trichloroacetic acid. After another day at 4 °C, the cells were washed in a strip washer and dyed with the SRB solution (100 µL, 0.4% in 1% acetic acid) for about 20 min and this was followed by washing of the plates (four times, 1% acetic acid) and air-drying overnight. Furthermore, tris base solution (200 µL, 10 mM) was added to each well and absorbance was measured at λ = 570 nm employing a reader (96 wells, Tecan Spectra, Crailsheim, Germany).

[2] = Sulforhodamine B cytotoxicity assay, SW1736; format: cell-based; settings: human, SW1736 thyroid carcinoma cells; SRB assay, tested 1-30 µM
Experimental: as §1

[3] = Sulforhodamine B cytotoxicity assay, FaDu; format: cell-based; settings: human, FaDu pharynx carcinoma cells; SRB assay, tested 1-30 µM
Experimental: as §1

[4] = molecular target: T1, AChE (from Electrophorus electricus) (Electrophorus electricus, UniProt O42275); experiment: biochemical; format: biochemical; settings: for inhibition at 10 µM: at concentration of 10 µM, ATChI 0.625 mM
T1 construct: purchased Merck (Darmstadt, Germany)
Experimental: (§2) A solution of tris(hydroxymethyl)-aminomethane (606 mg) in twice-distilled water (100 mL) was adjusted to a pH of 8.0 ± 0.1 with HCl to get a 50 mM Tris-HCl buffer solution. The AChE solution holding 2.005 U/mL was prepared by dissolving the enzyme (271 U/mg, 0.037 mg) in freshly prepared buffer pH 8.0 (5 mL) comprising extra NaN3 (0.98 mg), and for the BChE solution with the concentration of 2.040 U/mL: the enzyme (7.54 U/mg, 1.353 mg) was dissolved in freshly prepared buffer pH 8.0 (5 mL) comprising NaN3 (0.98 mg). The DTNB solution with the concentration of 3 mM was prepared by dissolving DTNB (23.8 mg) in buffer pH 8.0 (20 mL) and this was followed by the addition of MgCl2 (38.0 mg) and NaCl (116.8 mg). The ATChI solution with the concentration of 15 mM was prepared by dissolving ATChI (43.4 mg) in twice-distilled water (10 mL). Furthermore, all solutions were stored in Eppendorf tubes in the refrigerator or freezer. […] The final concentrations for the enzymatic assays were obtained by diluting the stock solution with twice-distilled water.
(§3) A mixture of the tested natural product solutions (25 µL, 3 different concentrations and one blank), DTNB solution (125 μL) and enzyme solution (25 μL, AChE or BChE) was incubated at 30 °C for 20 min in 96-well microplates followed by the addition of the substrate (25 μL, at 4 different concentrations). The final substrate concentrations were as follows: [ATChI] = 0.9375 mM, 0.625 mM, […], and 0.1875 mM. Moreover, the absorbance (λ = 415 nm) was measured at 30 °C for 30 min at 1 min intervals. […] Ki and Ki’ were deduced from Lineweaver–Burk, Dixon, and Cornish–Bowden plots as well as the mode of inhibtion. The relative inhibition was deduced as the quotient of the slopes (compound divided by blank) of the linear ranges. The concentration of each compound was 10 µM while the concentration was ATChI = 0.625 mM.

[5] = Sulforhodamine B cytotoxicity assay, A2780; format: cell-based; settings: human, A2780 ovarian carcinoma cells; SRB assay, tested 1-30 µM
Experimental: as §1

BChE (from equine serum) = molecular target: T2, BChE (from equine serum) (Equus caballus, UniProt P81908); experiment: Cholinesterase assay (Ellman's method), BChE; format: biochemical; settings: for inhibition at 10 µM: read-out: BChE % Inhibition
T2 construct: BChE (from equine serum); purchased Merck (Darmstadt, Germany); host or cells: equine serum
Experimental: as §2, §3

[6] = Sulforhodamine B cytotoxicity assay, HT29; format: cell-based; settings: human, HT29 colorectal adenocarcinoma cells; SRB assay, tested 1-30 µM
Experimental: as §1

[7] = molecular target: T3, α-Glucosidase type I (EC 3.2.1.20 from Saccharomyces cerevisiae) (Saccharomyces cerevisiae, UniProt P53341); experiment: α-Glucosidase assay (p-NPG substrate); format: biochemical; settings: for inhibition at 10 µM: at concentration of 10 µM
T3 construct: purchased Sigma-Aldrich (St. Louis, MO, USA)
Experimental: The α-glucosidase assay was applied to pure natural product 3 according to the protocol described by Schmidt and co-workers. In short, the assays were performed in 96-well microplates using a Multiskan FC microplate photometer (Thermo Fisher Scientific, Waltham, MA, USA) controlled by SkanIt 2.5.1 software (Thermo Fisher Scientific, Waltham, MA, USA) with final volumes of 200 µL in each well. A phosphate buffer (100 mM) was prepared by dissolving 2.65 g sodium dihydrogen phosphate dihydrate, 4.70 g disodium hydrogen phosphate, and 0.10 g sodium azide in 500 mL Milli-Q water and adjusting the pH to 7.5. […] The microplate was shaken for 2 min, and incubated for 10 min at 28 °C. Then, 20 µL of p-NPG substrate (10 mM, 60.2 mg in 20 mL buffer) was added to each well to initiate the reaction. The enzyme activity (expressed as cleavage rate ΔAU/s) was determined by measuring the absorbance at 405 nm every 30 s for 35 min, and percentage inhibition was calculated according to the equation: Percent inhibition=Slope(blank)−Slope(sample)/Slope(blank)× 100% where slopeblank is the enzyme activity of the wells containing buffer, enzyme, and substrate and slopesample is the enzyme activity in the wells containing buffer, enzyme, substrate, and sample.

[8] = Ki' (mixed-mode inhibition), from Lineweaver–Burk, Dixon and Cornish–Bowden plots

T3 sequence (P53341 whole entry): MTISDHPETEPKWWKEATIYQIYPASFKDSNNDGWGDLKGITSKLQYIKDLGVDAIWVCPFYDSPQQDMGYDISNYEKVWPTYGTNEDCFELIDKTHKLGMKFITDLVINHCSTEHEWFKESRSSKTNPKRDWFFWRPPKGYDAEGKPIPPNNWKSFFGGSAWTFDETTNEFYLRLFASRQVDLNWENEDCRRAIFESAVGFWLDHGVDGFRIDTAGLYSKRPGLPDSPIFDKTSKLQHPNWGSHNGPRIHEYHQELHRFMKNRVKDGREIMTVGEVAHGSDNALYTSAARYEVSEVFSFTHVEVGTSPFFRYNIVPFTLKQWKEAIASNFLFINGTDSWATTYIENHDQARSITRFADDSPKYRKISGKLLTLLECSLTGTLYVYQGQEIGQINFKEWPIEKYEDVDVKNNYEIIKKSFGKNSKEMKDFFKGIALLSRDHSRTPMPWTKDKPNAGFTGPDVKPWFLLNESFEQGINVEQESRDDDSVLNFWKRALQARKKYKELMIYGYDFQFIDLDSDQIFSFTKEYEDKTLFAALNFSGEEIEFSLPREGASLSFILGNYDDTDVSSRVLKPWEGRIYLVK
T1 sequence (O42275 24-633): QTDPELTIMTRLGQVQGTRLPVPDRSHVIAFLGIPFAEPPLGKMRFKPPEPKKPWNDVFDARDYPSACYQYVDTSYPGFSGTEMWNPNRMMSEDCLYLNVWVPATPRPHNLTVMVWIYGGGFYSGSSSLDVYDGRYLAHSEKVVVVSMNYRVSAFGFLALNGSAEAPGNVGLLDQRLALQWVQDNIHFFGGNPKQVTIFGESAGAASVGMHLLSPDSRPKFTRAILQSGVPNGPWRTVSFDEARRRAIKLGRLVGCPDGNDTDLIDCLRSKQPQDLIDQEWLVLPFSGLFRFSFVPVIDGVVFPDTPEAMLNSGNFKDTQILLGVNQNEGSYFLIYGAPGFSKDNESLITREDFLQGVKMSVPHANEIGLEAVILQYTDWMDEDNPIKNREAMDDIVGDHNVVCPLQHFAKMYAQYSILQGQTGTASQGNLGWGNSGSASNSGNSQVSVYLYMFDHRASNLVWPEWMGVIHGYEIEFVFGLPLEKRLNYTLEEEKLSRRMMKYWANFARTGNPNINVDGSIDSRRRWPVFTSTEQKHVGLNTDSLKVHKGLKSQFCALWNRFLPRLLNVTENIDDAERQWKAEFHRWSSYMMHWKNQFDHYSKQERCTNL
T2 sequence (P81908 whole entry): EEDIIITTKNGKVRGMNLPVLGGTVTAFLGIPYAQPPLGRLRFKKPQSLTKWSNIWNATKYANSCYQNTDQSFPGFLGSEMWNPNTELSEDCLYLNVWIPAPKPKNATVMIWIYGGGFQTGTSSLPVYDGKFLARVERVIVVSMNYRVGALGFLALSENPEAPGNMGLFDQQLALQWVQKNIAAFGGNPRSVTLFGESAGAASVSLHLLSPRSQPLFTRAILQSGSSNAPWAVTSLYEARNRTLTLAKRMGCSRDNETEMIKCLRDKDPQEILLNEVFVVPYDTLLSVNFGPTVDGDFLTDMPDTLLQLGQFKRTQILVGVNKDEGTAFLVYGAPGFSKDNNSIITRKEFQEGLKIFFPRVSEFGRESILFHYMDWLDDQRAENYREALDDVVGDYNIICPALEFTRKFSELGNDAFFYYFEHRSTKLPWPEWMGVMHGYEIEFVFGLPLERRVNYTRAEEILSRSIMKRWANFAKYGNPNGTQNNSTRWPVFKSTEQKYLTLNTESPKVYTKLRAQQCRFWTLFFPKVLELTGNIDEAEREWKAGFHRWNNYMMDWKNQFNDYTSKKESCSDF

Compound	IC50 at 3 days [1] [µM]	IC50 at 3 days [2] [µM]	IC50 at 3 days [3] [µM]	mode of inhibition of AChE [4]	AChE Ki' [4, 8] [µM]	Ki [4, 8] [µM]	inhibition at 10 µM [4] [%]	Ki ([4]; from Lineweaver–Burk, Dixon and Cornish–Bowden plots) [µM]	IC50 at 3 days [5] [µM]	inhibition at 10 µM (BChE (from equine serum); at concentration of 10 µM) [%]	IC50 at 3 days [6] [µM]	inhibition at 10 µM [7] [%]	IC50 [7] [µM]	inhibition at 10 µM (BChE (from equine serum)) [%]	mode of inhibition of BChE (BChE (from equine serum); results not shown)
CC1(C)C=Cc2c(ccc(C(=O)/C=C/c3ccc(OCc4ccccc4)cc3)c2O)O1 [Compound 1, (E)-3-(4-(benzyloxy)phenyl)-1-(5-hydroxy-2,2-dimethyl-2H-chromen-6-yl)prop-2-en-1-one]	> 30	> 30	> 30	mixed-mode type inhibitor	3.54 ± 0.24	3.54	97.4	5.39 ± 0.51	> 30	27.3	> 30	–	–	–	–
COC(=O)C(Cc1ccc2c(c1OC)C(=O)c1cccc(OC)c1C2=O)C(=O)OC [Compound 2, dimethyl 2-((1,5-dimethoxy-9,10-dioxo-9,10-dihydroanthracen-2-yl)methyl)malonate]	> 30	> 30	> 30	–	–	–	–	–	> 30	–	> 30	13.4	–	–	–
O=C1c2ccc(O)cc2C(=O)c2c(O)ccc(O)c21 [Compound 3, 1,4,6-trihydroxyanthracene-9,10-dione]	> 30	> 30	> 30	–	–	–	–	–	> 30	–	> 30	80.4	164 ± 83	–	–
COc1ccc(/C=C/C(=O)c2ccc3c(c2O)C=CC(C)(C)O3)cc1 [Compound 5, 4-methoxylonchocarpin]	23.7	26.2	> 30	–	–	–	49.9	–	25.4	8.7	20.2	36.1	–	–	–
COc1ccc2c3c1O[C@H]1C[C@@H](O)C=C[C@@]31CCN(C)C2 [GH, Galantamine hydrobromide, reference compound]	–	–	–	–	–	–	–	–	–	–	–	–	–	54.8	competitive inhibitor
